Columns and labels:
CDK2/cyclin A = biological target: T1, CDK2/cyclin A (Homo sapiens, UniProt P24941); experiment: Inhibition of CDK2/cyclin A retinoblastoma kinase activity (Ki; % inhibition); type: biochemical; details: for Ki: apparent Ki, CDK2/cyclin A, Rb substrate
T1 construct: made in house; host or cells: CDK2: insect cells (baculovirus); cyclin A: E. coli
Procedure, shortened: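 Apparent Ki values came from fitting concentration-dependent activity data to competitive (or competitive tight-binding) models, and % inhibition from single 30 nM screens of library compounds. Activity was measured as ³²P/³³P incorporation from 25 μM ATP into an Rb substrate by 10 or 19 nM CDK2/delta cyclin A at 30 °C over 60–75 min, pH 7.4.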

human CDK4/cyclin D3 = biological target: T2, human CDK4/cyclin D3 (Homo sapiens, UniProt P11802); experiment: Inhibition of CDK4/cyclin D retinoblastoma kinase activity (Ki; % inhibition); type: biochemical; details: for Ki: apparent Ki, CDK4/cyclin D3, Rb substrate
T2 construct: made in house; host or cells: insect cells co-infected with baculovirus vectors
T2 sequence (P11802 whole entry): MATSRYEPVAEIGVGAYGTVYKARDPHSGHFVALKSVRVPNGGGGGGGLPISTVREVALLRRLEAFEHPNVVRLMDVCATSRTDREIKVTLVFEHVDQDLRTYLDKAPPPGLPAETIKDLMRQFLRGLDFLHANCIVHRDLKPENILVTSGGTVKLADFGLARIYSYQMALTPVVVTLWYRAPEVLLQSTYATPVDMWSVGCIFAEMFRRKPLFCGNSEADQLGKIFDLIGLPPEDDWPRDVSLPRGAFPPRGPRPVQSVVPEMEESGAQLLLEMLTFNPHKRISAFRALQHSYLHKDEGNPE
T2 sequence (P30281 1-264 partner limits assumed): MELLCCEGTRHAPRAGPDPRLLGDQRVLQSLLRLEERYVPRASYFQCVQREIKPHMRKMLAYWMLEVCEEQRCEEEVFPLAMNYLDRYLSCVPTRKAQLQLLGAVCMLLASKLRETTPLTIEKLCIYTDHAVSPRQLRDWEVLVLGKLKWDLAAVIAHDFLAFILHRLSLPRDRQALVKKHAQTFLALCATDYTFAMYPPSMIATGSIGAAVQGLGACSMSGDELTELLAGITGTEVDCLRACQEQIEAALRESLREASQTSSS
Procedure, shortened: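 Radiometric filter-binding read-out: Rb residues 386-928 phosphorylated by 5 nM CDK4/cyclin D3(1-264) from baculovirus-infected insect cells, 25 μM ATP, HEPES pH 7.4, 30 °C. Run 20 min, or 60 min for tight-binding inhibitors. Screening at 30 nM theoretical compound; apparent Ki by competitive-inhibition fitting.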

HCT-116 cell line = experiment: Inhibition of cell growth, MTT tetrazolium salt assay; type: cell-based; details: for IC50: Homo sapiens, HCT-116, 120 h, MTT, three to five days
Procedure, shortened: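 Growth inhibition was read as MTT-formazan absorbance at 540 nm, after 4 h with 0.2 mg/mL MTT. Before that, HCT-116 cells had been exposed 3–5 days at 37 °C to compounds in 0.5% (v/v) DMSO, added 4 h after plating. 50% and 90% inhibitory concentrations were taken from semi-log concentration–inhibition plots versus vehicle controls.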

[1] = HCT-116 cells, 0.25 μM compound

SMILES	CDK2 % Inhibition at 0.03 μM (CDK2/cyclin A; 0.03 μM compound)	CDK4 % Inhibition at 0.03 μM (human CDK4/cyclin D3; 0.03 μM compound)	HCT-116 % Inhibition at 0.1 μM (HCT-116 cell line; HCT-116 cells, 0.1 μM compound)	HCT-116 % Inhibition at 0.25 μM (HCT-116 cell line; [1])	CDK2 % Inhibition at 0.03 μM (CDK2/cyclin A; at 0.03 μM)	CDK4 % Inhibition at 0.03 μM (human CDK4/cyclin D3; at 0.03 μM)	HCT-116 % Inhibition at 0.25 μM (HCT-116 cell line; HCT-116, at 0.25 μM)	further results
CN(C)CCCN1CCN(C(=O)c2ccc(Nc3nc(N)c(C(=O)c4c(F)cccc4F)s3)cc2)CC1 [Example G357]	−14%	17%	17%	88%				
Cc1ccc(CNC(=O)c2ccc(Nc3nc(N)c(C(=O)c4c(F)cccc4F)s3)cc2)o1 [Example A6, 4-[4-Amino-5-(2,6-difluoro-benzoyl)-thiazol-2-ylamino]-N-(5-methyl-furan-2-ylmethyl)-benzamide]								Ki (CDK2/cyclin A): 7.5 nM; Ki (human CDK4/cyclin D3): 15 nM; IC50 (HCT-116 cell line): 220 nM
Nc1nc(Nc2ccc(C(=O)NCCCCO)cc2)sc1C(=O)c1c(F)cccc1F [Example G256]	−12%	11%	19%	49%				
C=C(C)CNC(=O)c1ccc(Nc2nc(N)c(C(=O)c3c(F)cccc3F)s2)cc1 [Example G223]	14%	19%	14%	50%				
Nc1nc(Nc2ccc(C(=O)NCCN3CCCC3)cc2)sc1C(=O)c1c(F)cccc1F [Example A35, 4-[4-Amino-5-(2,6-difluoro-benzoyl)-thiazol-2-ylamino]-N-(2-pyrrolidin-1-yl-ethyl)-benzamide]								Ki (CDK2/cyclin A): 54 nM; Ki (human CDK4/cyclin D3): 6 nM; IC50 (HCT-116 cell line): 120 nM
CCN(CC)CCCNC(=O)c1ccc(Nc2nc(N)c(C(=O)c3c(F)cccc3F)s2)cc1 [Example G127]					10%	29%	61%	HCT-116 % Inhibition at 0.1 μM (HCT-116 cell line; HCT-116, at 0.1 μM): 0%
CN(C)C(=O)CN(C)C(=O)c1ccc(Nc2nc(N)c(C(=O)c3c(F)cccc3F)s2)cc1 [Example G5]					−23%	−3%	47%	
CNC(=O)c1ccccc1NC(=O)c1ccc(Nc2nc(N)c(C(=O)c3c(F)cccc3F)s2)cc1 [Example G161]					13%	7%	57%	HCT-116 % Inhibition at 0.1 μM (HCT-116 cell line; HCT-116, at 0.1 μM): 0%
CN(Cc1cccnc1)C(=O)c1ccc(Nc2nc(N)c(C(=O)c3c(F)cccc3F)s2)cc1 [Example G20]					10%	9%	50%	
Nc1nc(Nc2ccc(C(=O)N3CCSC3)cc2)sc1C(=O)c1c(F)cccc1F [Example G33]					−3%	10%	54%	
N#CCCNc1ccccc1NC(=O)c1ccc(Nc2nc(N)c(C(=O)c3c(F)cccc3F)s2)cc1 [Example G323]	−14%	7%	14%	72%				
COCCN1CCN(C(=O)c2ccc(Nc3nc(N)c(C(=O)c4c(F)cccc4F)s3)cc2)CC1 [Example G362]	12%	6%	9%	57%				
Nc1nc(Nc2ccc(C(=O)N3CCC4(CC3)OCCO4)cc2)sc1C(=O)c1c(F)cccc1F [Example G34]					8%	9%	53%	
COc1ccc(NC(=O)c2ccc(Nc3nc(N)c(C(=O)c4c(F)cccc4F)s3)cc2)cc1 [Example G54]					8%	9%	86%	
Cc1ccc(NC(=O)c2ccc(Nc3nc(N)c(C(=O)c4c(F)cccc4F)s3)cc2)cc1 [Example G197]	14%	9%	26%	61%				
CC(C)CCCC(C)NC(=O)c1ccc(Nc2nc(N)c(C(=O)c3c(F)cccc3F)s2)cc1 (stereo not shown) [Example G141]					0%	11%	50%	HCT-116 % Inhibition at 0.1 μM (HCT-116 cell line; HCT-116, at 0.1 μM): 0%
C#CCCN(CCCC)C(=O)c1ccc(Nc2nc(N)c(C(=O)c3c(F)cccc3F)s2)cc1 [Example G171]					4%	16%	47%	HCT-116 % Inhibition at 0.1 μM (HCT-116 cell line; HCT-116, at 0.1 μM): 30%
CN(C)C1(CNC(=O)c2ccc(Nc3nc(N)c(C(=O)c4c(F)cccc4F)s3)cc2)CCC1 [Example A78, 4-{[4-Amino-5-(2,6-difluorobenzoyl)-1,3-thiazol-2-yl]amino}-N-{[1-(dimethylamino)cyclobutyl]methyl}benzamide]								Ki (CDK2/cyclin A): 110 nM; Ki (human CDK4/cyclin D3): 8.2 nM; IC50 (HCT-116 cell line): 130 nM
Nc1nc(Nc2ccc(C(=O)NCc3cccnc3)cc2)sc1C(=O)c1c(F)cccc1F [Example G188]					29%	39%	51%	HCT-116 % Inhibition at 0.1 μM (HCT-116 cell line; HCT-116, at 0.1 μM): 17%
Nc1nc(Nc2ccc(C(=O)Nc3ccc(Cl)nc3)cc2)sc1C(=O)c1c(F)cccc1F [Example G281]	−9%	12%	6%	63%				
Nc1nc(Nc2ccc(C(=O)Nc3ccc(Cl)c(Cl)c3)cc2)sc1C(=O)c1c(F)cccc1F [Example G84]					9%	3%	63%	
Nc1nc(Nc2ccc(C(=O)Nc3cccc(OC(F)(F)F)c3)cc2)sc1C(=O)c1c(F)cccc1F [Example G292]	−31%	−15%	0%	60%				
CN(C(=O)c1ccc(Nc2nc(N)c(C(=O)c3c(F)cccc3F)s2)cc1)C1CCCCC1 [Example G187]					−2%	12%	48%	HCT-116 % Inhibition at 0.1 μM (HCT-116 cell line; HCT-116, at 0.1 μM): 16%
CC1CN(C(=O)c2ccc(Nc3nc(N)c(C(=O)c4c(F)cccc4F)s3)cc2)CC(C)O1 (stereo not shown) [Example G18]					−10%	4%	41%	
Nc1nc(Nc2ccc(C(=O)NCCC3=CCCCC3)cc2)sc1C(=O)c1c(F)cccc1F [Example G337]	7%	11%	13%	52%				
CC(C)(CO)CNC(=O)c1ccc(Nc2nc(N)c(C(=O)c3c(F)cccc3F)s2)cc1 [Example G263]	2%	24%	26%	54%				
Cc1nccc(-c2cccc(NC(=O)c3ccc(Nc4nc(N)c(C(=O)c5c(F)cccc5F)s4)cc3)c2)n1 [Example G87]					−40%	13%	78%	HCT-116 % Inhibition at 0.1 μM (HCT-116 cell line; HCT-116, at 0.1 μM): 54%
Nc1nc(Nc2ccc(C(=O)NC3CCN(Cc4ccccc4)C3)cc2)sc1C(=O)c1c(F)cccc1F (stereo not shown) [Example G353]								CDK2 % Inhibition at 0.03 μM (CDK2/cyclin A; 0.03 μM compound, 0.03 µM): 35%; CDK4 % Inhibition at 0.03 μM (human CDK4/cyclin D3; 0.03 μM compound, 0.03 µM): 46%; HCT-116 % Inhibition at 0.1 μM (HCT-116 cell line; HCT-116 cells, 0.1 μM compound, 0.1 µM): 0%; HCT-116 % Inhibition at 0.25 μM (HCT-116 cell line; HCT-116 cells, 0.25 μM compound, 0.25 µM): 55%
COCC(C)NC(=O)c1ccc(Nc2nc(N)c(C(=O)c3c(F)cccc3F)s2)cc1 (stereo not shown) [Example G103]					−2%	5%	59%	HCT-116 % Inhibition at 0.1 μM (HCT-116 cell line; HCT-116, at 0.1 μM): 21%
